Laboratory results as given in PubChem BioAssay (NCI).
Several values for one entry are separate records, joined by “and”; a condition that tells them apart may be missing. Equal values may be shown once.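 Tested at 5 concentrations; 48 h exposure; 96-well plates; endpoints linearly interpolated, else capped at highest concentration. Abbreviation: GI50, concentration required for 50% inhibition of growth. Definition used: TGI = concentration required for complete inhibition of growth.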

What was measured:
Assay in all cases: growth of human tumour cells (NCI), 48 h
[1] = test system: SR leukemia
[2] = test system: HS 578T breast
[3] = test system: NCI-H23 lung
[4] = test system: HCC-2998 colon
[5] = test system: OVCAR-4 ovarian
[6] = test system: A498 renal
[7] = test system: SK-OV-3 ovarian
[8] = test system: M14 melanoma
[9] = test system: KM12 colon
[10] = test system: SF-539 CNS

Structure (SMILES)	GI50 [1]	GI50 [2] [µM]	TGI [2] [µM]	GI50 [3] [µM]	TGI [3]	GI50 [4] [µM]	TGI [4] [µM]	GI50 [5] [µM]	TGI [5]	GI50 [6] [µM]	TGI [6] [µM]	GI50 [7] [µM]	TGI [7]	GI50 [8] [µM]	TGI [8] [µM]	GI50 [9] [µM]	TGI [9]	GI50 [10] [µM]	TGI [10]	TGI [1]
C=C1[C@@H](O)C[C@H]2C(C)(C)C[C@H](Cl)C[C@]2(C)[C@H]1C[C@H](O)[C@H]1CC(=O)NC1=O	0.0142 µM	0.0192	0.274	0.0193	0.15 µM	0.0173	0.117	0.0174	0.391 µM	0.0207	0.0723	0.0135	0.157 µM	< 0.0119	0.0492	< 0.012	0.441 µM	< 0.0109	0.0597 µM	
CNC12C3C4C1C1C2C3C41C(=O)N[C@H](C(=O)N(C)[C@H](C[C@@H](OC(C)=O)c1nc(C(=O)N[C@@H](Cc2ccccc2)C[C@H](C)C(=O)OC)cs1)C(C)C)C1CC1 (some centres undefined)	0.0179 µM	0.354	> 10.3	0.511	> 15 µM	0.319	2.67	1.1	> 15 µM	1.06	> 10.9	0.714	> 15 µM	0.294		0.276	6.69 µM	0.322	0.93 µM	> 7.82 µM
CC(=O)Oc1ccccc1C(=O)NCCC[Se]C#N	2.02 µM	2.12	6.8	2.58	7.57 µM	3.54	14.9	3.62	25.7 µM	2.1	4.08	3.33	6.16 µM	1.82	5.38	2.84	16.7 µM	2.04	3.87 µM	9.4 µM
CCOC(=O)Nc1ccc(C(=O)/C=C/c2ccccc2)cc1	3.68 µM	30.9	86	23.7	61.1 µM	17.1	31.6	43.8	> 100 µM	26.1	72.6	26.3	77.5 µM	19.1	44.3	4.8	17.6 µM	20.2	46.3 µM	> 100 µM
COC(=O)C1=CO[C@@H](OC2OC(CO)C(O)C(O)C2O)[C@@H]2[C@H](C)[C@@H](O)[C@@H](O)[C@]12O (some centres undefined)			> 100		> 100 µM		> 100				> 100		> 100 µM		> 100		> 100 µM		> 100 µM	> 100 µM
O=C1Nc2ccc(CN3CCOC3=O)cc2/C1=C/c1cc(CN2CCOCC2)c[nH]1	7.43 µM	> 69.8	> 100	32.5	> 100 µM	61	> 100	26.6	> 100 µM	> 45.2	> 100	98.9	> 100 µM	34	> 93.9	4.08	> 100 µM	53.9	> 100 µM	73.9 µM
COc1cccc2c1C(=O)c1c(O)c3c(c(O)c1C2=O)C[C@@](O)(C(C)=O)C[C@@H]3OC1CC(O)C(O)C(C)O1 (some centres undefined)	0.089 µM and 0.0887 µM		6.93		6.17 µM and 4.32 µM		12.8		9.94 µM and 16.9 µM		9.01		8.99 µM and 42.6 µM	2.7	18		9.61 µM and 12.2 µM		9.15 µM and 10.2 µM	0.451 µM and 0.497 µM
CCOc1ccc(NC(=O)c2cc3ccccc3cc2O)cc1	22.8 µM	59.8	> 100	45.9	> 100 µM	> 100	> 100	> 100	> 100 µM	86.4	> 100	27.8	> 100 µM	93.4	> 100	> 100	> 100 µM	33.2	> 100 µM	> 100 µM
O=C(Nc1nc(-c2ccccc2)cs1)c1cc(O)c(O)c(O)c1	1.62 µM	3.37	83.8	4.36	51.5 µM	10.1	36.3	2.22	57.3 µM	5.41	28.2	12	41.9 µM	7.9	44	8.02	26.9 µM	2.77	11.9 µM	19.9 µM
